Measured values taken from patent publication US9265253B2, “Use of macrocyclic picolinamides as fungicides” (DOW AGROSCIENCES LLC, priority 2013, dated 2016).
Where two headings read alike, the source gives them in different places.

Experiments:
[1] = test system: Mycosphaerella graminicola; Anamorph: Septoria tritici; test: Leaf Blotch of Wheat (SEPTTR) disease control; assay type: in vivo; settings: Zymoseptoria tritici
Procedure, shortened: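 Percent disease control is derived from Septoria tritici leaf blotch severity (0 to 100 percent) on treated versus untreated wheat seedlings. Plants get fungicide spray to run-off, with inoculation either preceding or following application, then humid incubation at 20° C.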

[2] = test system: Puccinia triticina; Synonym: Puccinia recondite f. Sp. Tritici; test: Wheat Brown Rust (PUCCRT) disease control; assay type: in vivo; settings: Puccinia triticina, topical
Procedure, shortened: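 Brown rust on first-leaf Yuma wheat: spore inoculation before or after spray application (acetone/Triton X-100 solution, or EC with Trycol in track spray), overnight 100% RH at 22 °C, disease developed at 24 °C. Severity scored 0–100% and converted to percent control against untreated.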

[3] = 24 h, 1 Day Protectant, rate 100 ppm, read-out: SEPTTR 1 DP disease control
[4] = 72 h, 3 Day Curative, rate 100 ppm, read-out: SEPTTR 3 DC disease control
[5] = 24 h, 1 Day Protectant, rate 100 ppm, read-out: PUCCRT 1 DP disease control
[6] = 72 h, 3 Day Curative, rate 100 ppm, read-out: PUCCRT 3 DC disease control
[7] = 24 h, Wheat Leaf Blotch, 1 Day Protectant, rate 100 ppm (high volume application), read-out: Disease control SEPTTR 1 DP
[8] = 24 h, Wheat Leaf Blotch, 1 Day Protectant, rate 121.5 g/H (low volume application), read-out: Disease control SEPTTR 1 DP
[9] = 72 h, Wheat Leaf Blotch, 3 Day Curative, rate 100 ppm (high volume application), read-out: Disease control SEPTTR 3 DC
[10] = 72 h, Wheat Leaf Blotch, 3 Day Curative, rate 121.5 g/H (low volume application), read-out: Disease control SEPTTR 3 DC
[11] = 24 h, Wheat Brown Rust, 1 Day Protectant, rate 100 ppm (high volume application), read-out: Disease control PUCCRT 1 DP
[12] = 24 h, Wheat Brown Rust, 1 Day Protectant, rate 121.5 g/H (low volume application), read-out: Disease control PUCCRT 1 DP
[13] = 72 h, Wheat Brown Rust, 3 Day Curative, rate 121.5 g/H (low volume application), read-out: Disease control PUCCRT 3 DC
[14] = 72 h, Wheat Brown Rust, 3 Day Curative, rate 100 ppm (high volume application), read-out: Disease control PUCCRT 3 DC

| SMILES | pest or weed control at 100 ppm [1, 3] [%] | pest or weed control at 100 ppm [1, 4] [%] | pest or weed control at 100 ppm [2, 5] [%] | pest or weed control at 100 ppm [2, 6] [%] | pest or weed control at 121.5 g/ha ([1]; 24 h, 1 Day Protectant, rate 121.5 g/H, read-out: SEPTTR 1 DP disease control) [%] | pest or weed control at 121.5 g/ha ([1]; 72 h, 3 Day Curative, rate 121.5 g/H, read-out: SEPTTR 3 DC disease control) [%] | pest or weed control at 121.5 g/ha ([2]; 24 h, 1 Day Protectant, rate 121.5 g/H, read-out: PUCCRT 1 DP disease control) [%] | pest or weed control at 121.5 g/ha ([2]; 72 h, 3 Day Curative, rate 121.5 g/H, read-out: PUCCRT 3 DC disease control) [%] | pest or weed control at 100 ppm [1, 7] [%] | pest or weed control at 121.5 g/ha [1, 8] [%] | pest or weed control at 100 ppm [1, 9] [%] | pest or weed control at 121.5 g/ha [1, 10] [%] | pest or weed control at 100 ppm [2, 11] [%] | pest or weed control at 121.5 g/ha [2, 12] [%] | pest or weed control at 121.5 g/ha [2, 13] [%] | pest or weed control at 100 ppm [2, 14] [%] |
| --- | --- | --- | --- | --- | --- | --- | --- | --- | --- | --- | --- | --- | --- | --- | --- | --- |
| CCOCC(=O)Oc1c(OC)ccnc1C(=O)N[C@H]1CCC[C@H](CCF)[C@@H](OCC(C)C)[C@H](C)OC1=O [Compound F184] | 80 to 100 | 80 to 100 | 80 to 100 | 80 to 100 | – | – | – | – | – | – | – | – | – | – | – | – |
| CCOCC(=O)Oc1c(OC)ccnc1C(=O)N[C@H]1CCC[C@H](CCOc2ccccc2)[C@@H](Oc2ccccc2)[C@H](C)OC1=O [Compound F185] | 80 to 100 | 80 to 100 | 80 to 100 | 80 to 100 | – | – | – | – | – | – | – | – | – | – | – | – |
| CCOCC(=O)Oc1c(OC)ccnc1C(=O)N[C@H]1CCC[C@H](CCOC)[C@@H](Oc2ccccc2)[C@H](C)OC1=O [Compound F186] | 80 to 100 | 80 to 100 | 80 to 100 | 80 to 100 | – | – | – | – | – | – | – | – | – | – | – | – |
| CCOCC(=O)Oc1c(OC)ccnc1C(=O)N[C@H]1CCC[C@H](CCOC)[C@@H](OCC(C)C)[C@H](C)OC1=O [Compound F188] | 80 to 100 | 80 to 100 | 80 to 100 | 80 to 100 | 80 to 100 | 80 to 100 | 80 to 100 | 80 to 100 | – | – | – | – | – | – | – | – |
| CCOCC(=O)OCOc1c(OC)ccnc1C(=O)N[C@H]1CCC[C@H](Cc2ccc(C)cc2)[C@@H](OCCCC(F)(F)F)[C@H](C)OC1=O [Compound F190, ((4-methoxy-2-(((3S,7R,8R,9S)-9-methyl-7-(4-methylbenzyl)-2-oxo-8-(4,4,4-trifluorobutoxyl)oxonan-3-yl)carbamoyl)pyridin-3-yl)oxy)methyl 2-ethoxyacetate] | – | – | – | – | – | – | – | – | 80 to 100 | 80 to 100 | 80 to 100 | 80 to 100 | 80 to 100 | 80 to 100 | 0 to 80 | – |
| CCOCC(=O)OCOc1c(OC)ccnc1C(=O)N[C@H]1CCC[C@H](CCOCC2CC2)[C@@H](OCC2CC2)[C@H](C)OC1=O [Compound F191] | – | – | – | – | – | – | – | – | 80 to 100 | 0 to 80 | – | 0 to 80 | 80 to 100 | 80 to 100 | 80 to 100 | 80 to 100 |
| COCCC(=O)Oc1c(OC)ccnc1C(=O)N[C@H]1CCC[C@H](CC2CCCC2)[C@@H](OCC2CC2)[C@H](C)OC1=O [Compound F194] | – | – | – | – | – | – | – | – | 80 to 100 | 80 to 100 | 80 to 100 | 80 to 100 | 80 to 100 | 80 to 100 | 0 to 80 | 80 to 100 |
| COCCC(=O)Oc1c(OC)ccnc1C(=O)N[C@H]1CCC[C@H](Cc2ccc(OC)cc2)[C@@H](OCC2CC2)[C@H](C)OC1=O [Compound F195, 2-(((3S,7R,8R,9S)-8-(cyclopropylmethoxy)-7-(4-methoxybenzyl)-9-methyl-2-oxooxonan-3-yl)carbamoyl)-4-methoxypyridin-3-yl 3-methoxypropanoate] | – | – | – | – | – | – | – | – | 80 to 100 | 80 to 100 | 80 to 100 | 80 to 100 | 80 to 100 | 80 to 100 | 0 to 80 | 80 to 100 |
| COc1ccnc(C(=O)N[C@H]2CCC[C@H](CCOCC3CC3)[C@@H](OCC3CC3)[C@H](C)OC2=O)c1OC(=O)C1CC1 [Compound F196] | – | – | – | – | – | – | – | – | 80 to 100 | 0 to 80 | 0 to 80 | 0 to 80 | 80 to 100 | 80 to 100 | 80 to 100 | 80 to 100 |
| CCO[C@@H]1[C@@H](Cc2ccccc2)CCC[C@H](NC(=O)c2nccc(OC)c2OC(=O)CCOC)C(=O)O[C@H]1C [Compound F197] | – | – | – | – | – | – | – | – | – | 80 to 100 | – | 80 to 100 | – | 80 to 100 | 80 to 100 | – |
